What all share (type): physicochemical
Data set [1] can be described thus: Solubility of doripenem crystal in water. As to the method:
The solubility of the Type VI doripenem anhydride crystal of Example 3 according to the present invention was measured and compared with that of the Type IV doripenem of Comparative Example 9.
50 mg of each of the Type VI doripenem anhydride crystal of Example 3 and the Type IV doripenem of Comparative Example 9 was added with water until the doripenem was completely dissolved, and the solubility thereof was measured. Meanwhile, 10 mL of water was added with the Type VI doripenem anhydride crystal of Example 3 and the Type IV doripenem of Comparative Example 9 until the doripenem was completely dissolved, and the solubility thereof was measured.

A short description of data set [2]: Stability: max. amount of impurities after standing at 60±5° C. for 3 weeks. As for the experimental part: In addition, the Type VII doripenem anhydride crystal of Example 7 according to the present invention and the Type IV doripenem of Comparative Example 9 were allowed to stand at 60±5° C. for 3 weeks, and the purity thereof was measured to evaluate the stability.

The nature of data set [3]: TGA loss. As for the experimental part: Based on the results of TGA, about 4.8% loss occurred in the Type IV doripenem of Comparative Example 9 (FIG. 8) and about 0.46% loss occurred in the Type VI doripenem anhydride crystal of Example 3 according to the present invention (FIG. 7). This means that the novel doripenem crystal, prepared through the method of the present invention, is an anhydride. Furthermore, the water content of the doripenem anhydride crystal according to the present invention was measured and found to be less than about 2%.

The nature of data set [4]: Stability: purity after standing at 60° C. for 3 weeks. As to the method: In addition, the Type VI doripenem anhydride crystal according to the present invention and the Type IV doripenem were allowed to stand at 60° C. for 3 weeks, and the purity thereof was measured to evaluate the stability.
The nature of data set [5]: Measurement of water content. As to the method: The doripenem anhydride crystals of Examples 3 and 7 according to the present invention and the Type IV doripenem hydrate of Comparative Example 9 were measured for water content.
A short description of data set [6]: DSC, decomposition temperature / stability at high temperature. As to the method: When the Type VI doripenem anhydride crystal of Example 3 according to the present invention and the conventional Type IV doripenem were analyzed through differential scanning calorimetry (DSC), the decomposition temperature of the Type VI doripenem anhydride crystal was higher than that of the Type IV doripenem (FIG. 6).
In addition, the decomposition temperature of the Type VII doripenem anhydride crystal of Example 7 according to the present invention was higher than that of the Type IV doripenem hydrate (FIG. 11).
(Differential scanning calorimetry records heat flow against a reference as temperature is scanned.)

The mark [7] stands for this setting: 2 weeks, listed as Comp. Example 9.
The mark [8] stands for this setting: 3 weeks, listed as Comp. Example 9.

Values after ≈ are worked out from the molar mass of the structure shown. Where two headings read alike, the source gives them in different places.

As for `C[C@@H](O)[C@H]1C(=O)N2C(C(=O)O)=C(S[C@@H]3CN[C@H](CNS(N)(=O)=O)C3)[C@H](C)[C@H]12` [Comparative Example 9, doripenem], in data set [1] (at 22° C.), the solubility (usually the dissolved amount per volume that the medium holds) is recorded as 20 mg/mL (≈ 47.6 mM). The “Max. Amount of impurities (%)” value in data set [2] (1 week) came to 0.08%; in data set [2] (setting [7]), 0.23%; in data set [2] (setting [8]), 0.28%; in data set [2] (Initial) it was 0.06%. The “increase of maximum amount of impurities over time” value in data set [2] (3 weeks) is recorded as 0.22%. Also, the “loss in TGA” value in data set [3] is given as “about 4.8%”. For the same molecule, the “Purity (%)” value in data set [4] (1 week, listed as Comp. Example 9) came to 99.0%; in data set [4] (setting [7]), 98.2%; in data set [4] (setting [8]), 97.3%; in data set [4] (Initial, listed as Comp. Example 9), 99.8%. For the same molecule, the “decrease of purity over time” value in data set [4] (3 weeks, listed as Type IV doripenem) was determined as 2.56%.
`C[C@@H](O)[C@H]1C(=O)N2C(C(=O)O)=C(S[C@@H]3CN[C@H](CNS(N)(=O)=O)C3)[C@H](C)[C@H]12` [Example 3, doripenem]: the Water content entry in data set [5] (listed as Type VI doripenem anhydride crystal) is on record as “less than 2%”. In data set [1] (22 °C, thermodynamic from solid, at 20 to 25° C., read-out: solubility), the solubility was in the range of 55 to 65 mg/mL (≈ 131 to 155 mM). The “stability at high temperature (DSC decomposition temperature) compared to Type IV doripenem hydrate” value in data set [6] is reported as “superior stability at high temperature”. Further, the “loss in TGA” value in data set [3] was “about 0.46%”. Also, the “Purity (%)” value amounted to 99.4% in data set [4] (1 week), 98.8% in data set [4] (2 weeks), 98.7% in data set [4] (3 weeks) and 99.6% in data set [4] (Initial). Further, in data set [4] (3 weeks), the “decrease of purity over time” value is reported as “less than 1%”.
Take `C[C@@H](O)[C@H]1C(=O)N2C(C(=O)O)=C(S[C@@H]3CN[C@H](CNS(N)(=O)=O)C3)[C@H](C)[C@H]12` [Example 7, doripenem]: the Water content entry in data set [5] (listed as Type VII doripenem anhydride crystal) is recorded as “less than 2%”. The solubility in data set [1] (22 °C, thermodynamic from solid, measured in the same manner as for Example 3, read-out: solubility) is 30 to 35 mg/mL (≈ 71.3 to 83.2 mM). Besides, the “Max. Amount of impurities (%)” value in data set [2] (1 week) stood at 0.08%; in data set [2] (2 weeks) it was 0.08%; in data set [2] (3 weeks), 0.08%; in data set [2] (Initial) it was 0.06%. Also, the “increase of maximum amount of impurities over time” value in data set [2] (3 weeks) stood at 0.02%. In addition, the “stability at high temperature (DSC decomposition temperature) compared to Type IV doripenem hydrate” value in data set [6] is recorded as “superior stability at high temperature”.

These data come from patent US9840506B2, “Crystal of doripenem, and preparation method therefor” (JW PHARMACEUTICAL CORPORATION, priority 2014, dated 2017).
